Test results as given in US20050130989A1, “N-arylheteroaromatic products compositions containing them and use thereof” (Aventis Pharma S. A., priority 2003, published 2005).
Structures can show the parent of a compound that is named as a salt.

How the values were obtained:
tubulin = target: T1, tubulin (Sus scrofa, UniProt P02550+P02554); test: Evaluation of the inhibition of tubulin polymerization (turbidimetry); format: biochemical, pig; conditions: tubulin 10 μm (1 mg/ml), 37° C., turbidity at 350 nm; concentration that inhibits the rate of polymerization by 50%; read-out: Inhibition of tubulin polymerization IC 50 (μm)
T1 construct: Tubulin is purified from pig brain according to published methods; from tissue; host or cells: pig brain
Description: Tubulin is purified from pig brain according to published methods (Shelanski et al., 1973, Proc. Natl. Acad. Sci. USA, 70, 765-768. Weingarten et al., 1975, Proc. Natl. Acad. Sci. USA, 72, 1858-1862). Briefly, the brains are ground and centrifuged in an extraction buffer. The tubulin contained in the supernatant of the extract undergoes two successive cycles of polymerization at 37° C. and depolymerization at 4° C., before being separated from the MAPs (Microtubule Associated Proteins) by chromatography on a phosphocellulose P11 column (Whatman). The tubulin thus isolated is more than 95% pure. It is stored in a buffer known as RB/2 30% glycerol, the composition of which is 50 mM MES-NaOH [2-(N-morpholino)ethanesulfonic acid], pH 6.8; 0.25 mM MgCl2; 0.5 mM EGTA; 30% glycerol (v/v), 0.2 mM GTP (guanosine-5′-triphosphate).
The polymerization of tubulin to microtubules is monitored by turbidimetry as follows: the tubulin is adjusted to a concentration of 10 μm (1 mg/ml) in RB/2 30% glycerol buffer to which 1 mM GTP and 6 mM MgCl2 are added. The polymerization is triggered by an increase in temperature from 6° C. to 37° C. in a cuvette with an optical path length of 1 cm, placed in a UVIKON 931 spectrophotometer (Kontron) equipped with a thermostatically maintained cuvette holder. The increase in the turbidity of the solution is monitored at 350 nm.
The products are dissolved at 10 mM in DMSO and added at variable concentrations (0.5 to 10 μm) to the tubulin solution before polymerization. The IC50 value is defined as the concentration of product that inhibits the rate of polymerization by 50%.

HCT116 cells = test: Inhibition of proliferation of the human colon tumor line HCT116 ([14C]-thymidine incorporation); format: cell-based; conditions: Homo sapiens, HCT-116, 48 h, 48 hours at 37° C., read-out: Inhibition of HCT116 proliferation IC 50 (μm)
Description: The proliferation of HCT116 cells is evaluated by measuring the incorporation of [^14C]-thymidine in the following manner. The HCT 116 cells (obtained from the ATCC) are cultured in a DMEM medium (Gibco) containing 10% fetal calf serum and antibiotics (1% penicillin, 1% streptomycin). To perform the proliferation test, the cells are inoculated in cytostar 96-well microplates (Amersham), at a rate of 5000 cells per well. [^14C]-thymidine (0.1 μCi/well) and the products to be evaluated are then added. Variable concentrations of products up to 10 μm are used; the DMSO (solvent used to dissolve the products) should not exceed 0.5% in the medium. 48 hours after incubation at 37° C., the radioactivity incorporated into the cells is measured by counting the plate in a TRI-LUX counter (Wallac). The IC50 is defined as the concentration of product that reduces the radioactivity by 50% compared with an untreated control. A product whose IC50 is less than 3 μm is considered cytotoxic.

T1 sequence (P02550 whole entry): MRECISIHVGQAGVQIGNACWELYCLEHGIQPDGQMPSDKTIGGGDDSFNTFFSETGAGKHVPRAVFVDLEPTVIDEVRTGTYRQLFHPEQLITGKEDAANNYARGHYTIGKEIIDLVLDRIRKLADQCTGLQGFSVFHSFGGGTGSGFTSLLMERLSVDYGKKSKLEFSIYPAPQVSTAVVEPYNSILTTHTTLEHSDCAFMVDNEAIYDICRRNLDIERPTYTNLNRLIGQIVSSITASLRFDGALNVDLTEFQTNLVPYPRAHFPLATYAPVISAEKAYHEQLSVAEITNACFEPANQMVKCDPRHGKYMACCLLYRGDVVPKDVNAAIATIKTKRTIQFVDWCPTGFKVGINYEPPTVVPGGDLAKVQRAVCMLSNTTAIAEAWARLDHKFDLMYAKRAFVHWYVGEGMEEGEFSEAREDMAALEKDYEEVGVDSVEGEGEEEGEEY
T1 sequence (P02554 whole entry): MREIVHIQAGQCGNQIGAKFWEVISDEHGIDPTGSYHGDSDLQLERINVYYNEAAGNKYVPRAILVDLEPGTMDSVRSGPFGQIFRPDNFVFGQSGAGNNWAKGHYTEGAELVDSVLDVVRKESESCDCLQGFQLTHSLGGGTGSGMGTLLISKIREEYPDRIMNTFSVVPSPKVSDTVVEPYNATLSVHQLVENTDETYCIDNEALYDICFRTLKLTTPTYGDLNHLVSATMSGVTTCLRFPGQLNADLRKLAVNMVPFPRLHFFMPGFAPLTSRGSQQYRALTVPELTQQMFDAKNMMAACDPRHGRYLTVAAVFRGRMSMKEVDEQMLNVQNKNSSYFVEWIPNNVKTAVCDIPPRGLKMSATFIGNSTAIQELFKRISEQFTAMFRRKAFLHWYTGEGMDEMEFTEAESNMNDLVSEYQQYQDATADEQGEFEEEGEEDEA

| SMILES | IC50 (tubulin) [nM] | IC50 (HCT116 cells) [nM] |
| --- | --- | --- |
| Cc1cc(C(=O)N2CCN(c3cccc(Cl)c3Cl)CC2)n(-c2ccccc2)n1 [3/36] | 1800 | 119 |
| Cc1cccc(N2CCN(C(=O)c3cc(C)nn3-c3cccc(Cl)c3)CC2)c1 [3/123] | 3300 | 51 |
| CCc1ccccc1N1CCN(C(=O)c2cc(C)nn2-c2ccccc2F)CC1 [3/142] | 3800 | 110 |
| Cc1cc(C(=O)N2CCN(c3ccc4c(c3)OCCO4)CC2)n(-c2ccccc2)n1 [3/14] | 15000 | 352 |
| Cc1cc(C(=O)N2CCN(c3ccc(C)c(C)c3)CC2)n(-c2cccc(F)c2)n1 [3/17] | 3500 | 159 |
| Cc1cccc(-n2nc(C)cc2C(=O)N2CCN(c3cccc(C(F)(F)F)c3)CC2)c1 [3/46] | 8000 | 197 |
| Cc1cc(C(=O)N2CCN(c3ccc(Cl)c(Cl)c3)CC2)n(-c2cccc(F)c2)n1 [3/93] | 1700 | 32 |
| Cc1cc(C(=O)N2CCN(c3ccc4c(c3)OCCO4)CC2)n(-c2ccc(F)cc2)n1 [3/62] | 6000 | 71 |
| CCc1ccccc1N1CCN(C(=O)c2cc(C)nn2-c2cccc(Cl)c2)CC1 [3/68] | 1500 | 36 |
| Cc1cc(C(=O)N2CCN(c3ccccc3C(F)(F)F)CC2)n(-c2cccc(Cl)c2)n1 [3/128] | 12000 | 901 |
| CCOc1ccccc1N1CCN(C(=O)c2cc(C)nn2-c2ccccc2)CC1 [3/43] | 9000 | 229 |
| Cc1cc(C(=O)N2CCN(c3cccc(Cl)c3Cl)CC2)n(-c2cccc(F)c2)n1 [3/99] | 2000 | 41 |
| Cc1ccc(-n2nc(C)cc2C(=O)N2CCN(c3cccc(Cl)c3)CC2)cc1 [3/27] | 4500 | 217 |
| Cc1cc(C(=O)N2CCN(c3cccc(C)c3C)CC2)n(-c2cccc(F)c2)n1 [3/94] | 800 | 32 |
| Cc1cccc(N2CCN(C(=O)c3cc(C)nn3-c3ccccc3)CC2)n1 [3/150] | 1100 | 5.5 |
| Cc1cc(C(=O)N2CCN(c3ccccc3C)CC2)n(-c2ccccc2F)n1 [3/87] | 15000 | 238 |
| Cc1cc(C(=O)N2CCN(c3cccc(Cl)c3)CC2)n(-c2ccc(F)cc2)n1 [3/38] | 6000 | 338 |
| COc1ccc(Cl)cc1N1CCN(C(=O)c2cc(C)nn2-c2cccc(C)c2)CC1 [3/54] | 1000 | 117 |
| Cc1cc(C(=O)N2CCN(c3cccc4ccccc34)CC2)n(-c2ccccc2)n1 [3/13] | 6000 | 466 |
| Cc1cc(C(=O)N2CCN(c3cccc4ccccc34)CC2)n(-c2ccc(F)cc2)n1 [3/59] | 5700 | 4980 |
| CCc1ccccc1N1CCN(C(=O)c2cc(C)nn2-c2cccc(C)c2)CC1 [3/29] | 5000 | 452 |
| COc1cccc(N2CCN(C(=O)c3cc(C)nn3-c3cccc(Cl)c3)CC2)c1 [3/25] | 1800 | 40 |
| COc1cccc(N2CCN(C(=O)c3cc(C)nn3-c3ccc(F)cc3)CC2)c1 [3/63] | 900 | 19 |
| Cc1cc(C(=O)N2CCN(c3ccccc3Cl)CC2)n(-c2ccccc2)n1 [3/112] | 15000 | 1520 |
| Cc1cccc(-n2nc(C)cc2C(=O)N2CCN(c3cccc(Cl)c3Cl)CC2)c1 [3/116] | 3000 | 141 |
| Cc1cc(C(=O)N2CCN(c3ccccc3C(F)(F)F)CC2)n(-c2ccccc2)n1 [3/84] | 5500 | 176 |
| Cc1cc(C(=O)N2CCN(c3ccc(C)c(C)c3)CC2)n(-c2cccc(Cl)c2)n1 [3/66] | 2000 | 73 |

The remaining lines, values ahead:

| IC50 (tubulin) [nM] | IC50 (HCT116 cells) [nM] | SMILES |
| --- | --- | --- |
| 3700 | 1830 | O=C(c1cc(-c2ccccc2)nn1-c1ccccc1)N1CCN(c2cccc(Cl)c2)CC1 [Example E66, [4-(3-Chlorophenyl)piperazin-1-yl](2,5-diphenyl-2H-pyrazol-3-yl)methanone] |
| 870 | 6.8 | C/C=C/c1cc(C(=O)N2CCN(c3cc(OC)cc(OC)c3)CC2)n(-c2ccccc2)n1 [Example E86] |
| 700 | 26.7 | Cc1cc(C(=O)N2CCN(c3cc(Cl)ccc3Br)CC2)n(-c2ccccc2)n1 [Example E77, [4-(2-Bromo-5-chlorophenyl)piperazin-1-yl](5-methyl-2-phenyl-2H-pyrazol-3-yl)methanone] |
| 2300 | 237 | O=C(c1cc(-c2cccnc2)nn1-c1ccccc1)N1CCN(c2cccc(Cl)c2)CC1 [Example E67, [4-(3-Chlorophenyl)piperazin-1-yl][2-phenyl-5-(pyrid-3-yl)-2H-pyrazol-3-yl]methanone] |
| 900 | 2 | COc1cc(OC)cc(N2CCN(C(=O)c3cc(/C=N/O)nn3-c3ccccc3)CC2)c1 [Example E94, 5-[4-(3,5-Dimethoxyphenyl)piperazine-1-carbonyl]-1-phenyl-1H-pyrazole-3-carboxaldehyde oxime E] |
| 14500 | 1240 | O=C(c1cccn1-c1ccccc1)N1CCN(c2cccnc2)CC1 [Example E46, (1-Phenyl-1H-pyrrol-2-yl)[4-(pyrid-3-yl)piperazin-1-yl]methanone hydrochloride] |
| 1700 | 10.6 | O=C(c1cc(Br)nn1-c1ccccc1)N1CCN(c2cccc(Cl)c2)CC1 [Example E65, (5-Bromo-2-phenyl-2H-pyrazol-3-yl)[4-(3-chlorophenyl)piperazin-1-yl]-methanone] |
| 9500 | 198 | Cc1cc(C(=O)N2CCN(c3ccccc3)CC2)n(-c2ccccn2)n1 [Example E21, (5-Methyl-2-pyrid-2-yl-2H-pyrazol-3-yl)(4-phenylpiperazin-1-yl)methanone] |
| 1200 | 59.5 | CC(=O)Nc1cccc(N2CCN(C(=O)c3cc(C)nn3-c3ccccc3)CC2)c1 [Example E18, N-{3-[4-(5-methyl-2-phenyl-2H-pyrazole-3-carbonyl)piperazin-1-yl]phenyl}-acetamide] |
| 2170 | 1460 | Cc1cc(C(=O)N2CCN(c3cccc(Cl)c3)CC2)n(-c2c(F)c(F)cc(F)c2F)n1 [Example E43, [4-(3-Chlorophenyl)piperazin-1-yl][5-methyl-2-(2,3,5,6-tetrafluorophenyl)-2H-pyrazol-3-yl]methanone] |
| 1900 | 138 | O=C(c1cc(CNc2ccccc2)nn1-c1ccccc1)N1CCN(c2cccc(Cl)c2)CC1 [Example E76, [4-(3-Chlorophenyl)piperazin-1-yl](2-phenyl-5-phenylaminomethyl-2H-pyrazol-3-yl)methanone] |
| 2300 | 6090 | O=C(c1cc(OCc2ccccc2)nn1-c1ccccn1)N1CCN(c2cccc(Cl)c2)CC1 [Example E61, (5-Benzyloxy-2-pyrid-2-yl-2H-pyrazol-3-yl)[4-(3-chlorophenyl)piperazin-1-yl]methanone] |
| 4000 | 19.6 | Cc1cc(C(=O)N2CCN(c3cccc(Cl)c3)CC2)n(-c2ncccc2C#N)n1 [Example E38, 2-{5-[4-(3-Chlorophenyl)piperazine-1-carbonyl]-3-methylpyrazol-1-yl}nicotinonitrile] |
| 2020 | 6.3 | COc1cc(OC)cc(N2CCN(C(=O)c3cc(N4CCCC4)nn3-c3ccccc3)CC2)c1 [Example E93, [4-(3,5-Dimethoxyphenyl)piperazin-1-yl][2-phenyl-5-(pyrrolidin-1-yl)-2H-pyrazol-3-yl]methanone] |
| 1390 | 181 | COc1cc(OC)cc(N2CCN(C(=O)c3cc(-c4ccsc4)nn3-c3ccccc3)CC2)c1 [Example E85, [4-(3,5-Dimethoxyphenyl)piperazin-1-yl][2-phenyl-5-(thiophen-3-yl)-2H-pyrazol-3-yl]methanone] |
| 1550 | 6.6 | Cc1cc(C(=O)N2CCN(c3ccc(F)c(Cl)c3)CC2)n(-c2ccccc2)n1 [Example E72, [4-(3-Chloro-4-fluorophenyl)piperazin-1-yl](5-methyl-2-phenyl-2H-pyrazol-3-yl)methanone] |
